According to paper PMC10820264, “Combining Experimental and Computational Methods to Produce Conjugates of Anticholinesterase and Antioxidant Pharmacophores with Linker Chemistries Affecting Biological Activities Related to Treatment of Alzheimer’s Disease” (Molecules, 2024):
Several values for one entry are separate records, joined by “and”; a condition that tells them apart may be missing. Equal values may be shown once. Read-outs that look alike come from different tables or passages of the source. Marks after values point to notes of the source that are not given here.

What was measured:
[1] = Ferric-reducing antioxidant power (FRAP) assay; details: Trolox equivalents
[2] = biological target: peripheral anionic site of Electrophorus electricus AChE (EeAChE) (Electrophorus electricus, UniProt O42275); type: binding;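 also: compounds tested at 20 µM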
[3] = biological target: equine serum BChE (Equus caballus, UniProt P81908); assay: biochemical; type: biochemical
Experimental: (§1) Human erythrocyte AChE and equine serum BChE were purchased from Milamed (Perm, Russia). Porcine liver CES, substrates, and reference compounds were from Sigma-Aldrich (St. Louis, MO, USA). The activity of enzymes was measured spectrophotometrically, as described in detail in [72] using ATCh iodide, BTCh iodide, and 4-NPA as substrates for AChE, BChE, and CES, respectively. Experimental conditions: K,Na—phosphate buffer (100 mM), 25 °C, pH 7.5 for AChE and BChE and pH 8.0 for CES assay. Measurements were carried out on a FLUOStar Optima microplate reader (BMG Labtech, Ortenberg, Germany).
(§2) Test compounds were dissolved in DMSO; the final concentration of solvent in the incubation mixture was 2% (v/v).

[4] = biological target: Human erythrocyte AChE (Homo sapiens, UniProt P22303); assay: biochemical; type: biochemical
Experimental: as §1, §2

[5] = test system: Porcine liver CES; assay: CES inhibition, spectrophotometric, 4-NPA substrate; type: biochemical
Experimental: as §1
Test compounds were dissolved in DMSO; the final concentration of solvent in the incubation mixture was 2% (v/v). […]

[6] = ABTS radical cation scavenging assay; details: for time to reach the activity level of Trolox in ABTS radical scavenging: compound at 20 μM (IC50 of Trolox); for ABTS•+-Scavenging Activity TEAC: Trolox equivalents
[7] = biological target: Aβ42 (Homo sapiens, UniProt P05067); assay: Inhibition of Aβ42 self-aggregation, thioflavin T fluorescence; type: biochemical; details: for inhibition at 100 µM: read-out: Inhibition of Aβ42 Self-Aggregation
Chain of Aβ42 (P05067 672-713): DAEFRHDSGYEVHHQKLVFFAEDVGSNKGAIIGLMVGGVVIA

Chain of Human erythrocyte AChE (P22303 other isoform, or with tags, fused parts or gaps): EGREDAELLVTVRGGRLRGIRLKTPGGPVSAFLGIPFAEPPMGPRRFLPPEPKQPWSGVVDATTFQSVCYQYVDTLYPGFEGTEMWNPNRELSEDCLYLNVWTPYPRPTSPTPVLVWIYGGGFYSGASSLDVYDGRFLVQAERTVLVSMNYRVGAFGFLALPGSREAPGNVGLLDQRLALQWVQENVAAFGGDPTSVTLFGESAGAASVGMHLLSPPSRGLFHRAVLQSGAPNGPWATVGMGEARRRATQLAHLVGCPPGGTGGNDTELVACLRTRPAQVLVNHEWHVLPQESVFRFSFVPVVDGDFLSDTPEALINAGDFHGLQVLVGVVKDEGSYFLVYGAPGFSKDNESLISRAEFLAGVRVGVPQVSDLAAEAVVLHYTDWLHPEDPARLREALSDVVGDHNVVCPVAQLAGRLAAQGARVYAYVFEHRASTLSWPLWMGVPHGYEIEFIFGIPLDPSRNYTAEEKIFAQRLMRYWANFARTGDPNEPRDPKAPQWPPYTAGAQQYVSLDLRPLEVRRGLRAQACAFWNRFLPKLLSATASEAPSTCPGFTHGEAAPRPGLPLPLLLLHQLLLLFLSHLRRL
Chain of equine serum BChE (P81908 whole entry): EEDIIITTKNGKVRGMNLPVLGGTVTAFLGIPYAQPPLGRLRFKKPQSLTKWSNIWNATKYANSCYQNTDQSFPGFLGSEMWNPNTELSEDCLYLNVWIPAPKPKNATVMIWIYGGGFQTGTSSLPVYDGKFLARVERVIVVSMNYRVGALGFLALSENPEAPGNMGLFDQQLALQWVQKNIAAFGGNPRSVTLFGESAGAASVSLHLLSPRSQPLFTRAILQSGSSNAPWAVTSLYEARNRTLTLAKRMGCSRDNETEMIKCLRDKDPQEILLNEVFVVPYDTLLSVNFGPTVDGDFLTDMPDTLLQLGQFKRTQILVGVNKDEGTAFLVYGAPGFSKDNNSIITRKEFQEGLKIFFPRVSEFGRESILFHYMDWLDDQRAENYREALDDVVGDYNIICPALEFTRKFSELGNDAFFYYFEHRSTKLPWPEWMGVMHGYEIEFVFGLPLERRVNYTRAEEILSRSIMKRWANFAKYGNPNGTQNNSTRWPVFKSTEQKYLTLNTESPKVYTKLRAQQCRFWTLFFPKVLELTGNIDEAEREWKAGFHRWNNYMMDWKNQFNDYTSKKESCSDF
Chain of peripheral anionic site of Electrophorus electricus AChE (EeAChE) (O42275 24-633): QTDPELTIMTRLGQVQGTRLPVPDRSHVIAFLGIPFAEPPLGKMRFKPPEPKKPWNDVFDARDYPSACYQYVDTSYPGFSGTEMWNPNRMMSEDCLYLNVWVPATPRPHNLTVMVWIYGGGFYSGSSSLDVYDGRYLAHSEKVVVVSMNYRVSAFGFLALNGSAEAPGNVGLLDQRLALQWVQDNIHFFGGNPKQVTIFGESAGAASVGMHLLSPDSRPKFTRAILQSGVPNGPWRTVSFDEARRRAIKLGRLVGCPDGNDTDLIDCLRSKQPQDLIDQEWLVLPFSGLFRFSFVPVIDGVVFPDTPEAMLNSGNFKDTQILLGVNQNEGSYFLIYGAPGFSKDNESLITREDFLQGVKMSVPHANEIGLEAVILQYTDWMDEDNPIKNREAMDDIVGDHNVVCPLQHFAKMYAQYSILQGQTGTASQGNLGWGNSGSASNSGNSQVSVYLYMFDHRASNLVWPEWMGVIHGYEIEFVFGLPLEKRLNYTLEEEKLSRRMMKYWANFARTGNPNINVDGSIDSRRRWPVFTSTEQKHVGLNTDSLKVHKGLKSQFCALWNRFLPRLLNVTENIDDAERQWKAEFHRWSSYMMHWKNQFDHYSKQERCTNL

CC(C)(C)c1cc(CNCCCCCCNc2c3c(nc4ccccc24)CCC3)cc(C(C)(C)C)c1O [16c, 2,6-Di-tert-butyl-4-{[6-(2,3-dihydro-1H-cyclopenta[b]quinolin-9-ylamino)-hexylamino]-methyl}-phenol]
Ferric-Reducing Antioxidant Power TE [1]: 0.51 ± 0.02
Propidium Displacement [2]: 15.8 ± 1.4%
IC50 [3]: 48.8 ± 0.5 nM
IC50 [4]: 205 ± 12 nM
CES % inhibition at 20 μM [5]: 18.7 ± 0.7%
IC50 [6]: 13.4 ± 0.7 µM
time to reach the activity level of Trolox in ABTS radical scavenging [6]: less than 1 min

Cc1c(C)c2c(c(C)c1O)CCC(C)(C(=O)O)O2 (stereo not drawn) [Trolox, 6-hydroxy-2,5,7,8-tetramethylchroman-2-carboxylic acid, reference compound]
Ferric-Reducing Antioxidant Power TE [1]: 1.0
IC50 [6]: 20 µM and 20.1 µM
ABTS•+-Scavenging Activity TEAC [6]: 1.0

CC(C)(C)c1cc(C=NCCCCNc2c3c(nc4ccccc24)CCCC3)cc(C(C)(C)C)c1O [14b, 2,6-Di-tert-butyl-4-{[4-(1,2,3,4-tetrahydro-acridin-9-ylamino)-butylimino]-methyl}-phenol]
Propidium Displacement [2]: 17.6 ± 1.4 *^,§ %
IC50 [3]: 385 ± 31 nM
IC50 [4]: 424 ± 22 nM
CES % inhibition at 20 μM [5]: 26.6 ± 2.2%
IC50 [6]: 19.7 ± 0.9 µM
ABTS•+-Scavenging Activity TEAC [6]: 1.0 and 1.00 ± 0.05

CC(C)(C)c1cc(CNCCCCNc2c3c(nc4ccccc24)CCCC3)cc(C(C)(C)C)c1O [17b, 2,6-Di-tert-butyl-4-{[4-(1,2,3,4-tetrahydro-acridin-9-ylamino)-butylamino]-methyl}-phenol]
Propidium Displacement [2]: 15.4 ± 1.3%
IC50 [3]: 111 ± 9 nM
IC50 [4]: 279 ± 22 nM
CES % inhibition at 20 μM [5]: 15.8 ± 1.4%
IC50 [6]: 14.3 ± 0.6 µM
time to reach the activity level of Trolox in ABTS radical scavenging [6]: less than 1 min

bis-4-nitrophenyl phosphate [BNPP, reference compound]
CES % inhibition at 20 μM [5]: 99.1 ± 0.9% ^b

Nc1c2c(nc3ccccc13)CCCC2 [Tacrine, reference compound]
Inhibition of Aβ42 Self-Aggregation ([7]; Aβ42 50 µM, compound 100 µM): minimal inhibition

O=c1c(O)c(-c2cc(O)c(O)c(O)c2)oc2cc(O)cc(O)c12 [Myricetin, reference compound]
inhibition at 100 µM [7]: 73.2 ± 5.8%

CC(C)(C)c1cc(C=NCCCCCCNc2c3c(nc4ccccc24)CCCC3)cc(C(C)(C)C)c1O [14c, 2,6-Di-tert-butyl-4-{[6-(1,2,3,4-tetrahydro-acridin-9-ylamino)-hexylimino]-methyl}-phenol]
Ferric-Reducing Antioxidant Power TE [1]: 0.71 ± 0.02
inhibition at 100 µM ([7]; Aβ42 50 µM, compound 100 µM): 62.4 ± 4.9%
Propidium Displacement [2]: 19.7 ± 1.5 **^,§ %
IC50 [3]: 55 ± 5 nM
IC50 [4]: 71.2 ± 1.2 nM
CES % inhibition at 20 μM [5]: 25.1 ± 1.9%
IC50 [6]: 18.6 ± 0.9 µM
ABTS•+-Scavenging Activity TEAC [6]: 1.10 ± 0.05

CC(C)(C)c1cc(CNCCCCNc2c3c(nc4ccccc24)CCCCC3)cc(C(C)(C)C)c1O [18b, 2,6-Di-tert-butyl-4-{[4-(7,8,9,10-tetrahydro-6H-cyclohepta[b]quinolin-11-ylamino)-butylamino]-methyl}-phenol]
Ferric-Reducing Antioxidant Power TE [1]: 0.38 ± 0.01
Propidium Displacement [2]: 15.7 ± 1.2%
IC50 [3]: 67.8 ± 6.1 nM
IC50 [4]: 436 ± 16 nM
CES % inhibition at 20 μM [5]: 21.4 ± 1.8%
IC50 [6]: 14.6 ± 0.5 µM
time to reach the activity level of Trolox in ABTS radical scavenging [6]: less than 1 min

CC(C)(C)c1cc(CNCCCCCCCCNc2c3c(nc4ccccc24)CCC3)cc(C(C)(C)C)c1O [16d, 2,6-Di-tert-butyl-4-{[8-(2,3-dihydro-1H-cyclopenta[b]quinolin-9-ylamino)-octylamino]-methyl}-phenol]
Ferric-Reducing Antioxidant Power TE [1]: 0.61 ± 0.01
inhibition at 100 µM ([7]; Aβ42 50 µM, compound 100 µM): 54.6 ± 3.9%
Propidium Displacement [2]: 13.9 ± 1.1%
IC50 [3]: 17 ± 1.6 nM
IC50 [4]: 94 ± 6 nM
CES % inhibition at 20 μM [5]: 17.2 ± 0.2%
IC50 [6]: 21.3 ± 1.2 µM
ABTS•+-Scavenging Activity TEAC [6]: 1.00 ± 0.03

CC(C)(C)c1cc(CNCCCCNc2c3c(nc4ccccc24)CCC3)cc(C(C)(C)C)c1O [16b, 2,6-Di-tert-butyl-4-{[4-(2,3-dihydro-1H-cyclopenta[b]quinolin-9-ylamino)-butylamino]-methyl}-phenol]
Ferric-Reducing Antioxidant Power TE [1]: 0.44 ± 0.02
Propidium Displacement [2]: 17.5 ± 1.5 *^,§ %
IC50 [3]: 177 ± 17 nM
IC50 [4]: 912 ± 16 nM
CES % inhibition at 20 μM [5]: 17.2 ± 3.3%
IC50 [6]: 23.6 ± 1.3 µM
ABTS•+-Scavenging Activity TEAC [6]: 0.90 ± 0.04

CC(C)(C)c1cc(CNCCNc2c3c(nc4ccccc24)CCCC3)cc(C(C)(C)C)c1O [17a, 2,6-Di-tert-butyl-4-{[2-(1,2,3,4-tetrahydro-acridin-9-ylamino)-ethylamino]-methyl}-phenol]
Ferric-Reducing Antioxidant Power TE [1]: 0.52 ± 0.02
Propidium Displacement [2]: 13.4 ± 1.1%
IC50 [3]: 464 ± 41 nM
IC50 [4]: 2880 ± 190 nM
CES % inhibition at 20 μM [5]: 18.4 ± 1.1%
IC50 [6]: 16.7 ± 0.8 µM
ABTS•+-Scavenging Activity TEAC [6]: 1.20 ± 0.05

Propidium iodide [reference compound]
Inhibition of Aβ42 Self-Aggregation ([7]; Aβ42 50 µM, compound 100 µM): 89.3 ± 7.1 ^b %

CC(C)(C)c1cc(C=NCCCCNc2c3c(nc4ccccc24)CCCCC3)cc(C(C)(C)C)c1O [15b, 2,6-Di-tert-butyl-4-{[4-(7,8,9,10-tetrahydro-6H-cyclohepta[b]quinolin-11-ylamino)-butylimino]-methyl}-phenol]
Ferric-Reducing Antioxidant Power TE [1]: 0.46 ± 0.01
Propidium Displacement [2]: 18.4 ± 1.4 **^,§ %
IC50 [3]: 131 ± 4 nM
IC50 [4]: 524 ± 20 nM
CES % inhibition at 20 μM [5]: 26.3 ± 0.4%
IC50 [6]: 22.5 ± 1.4 µM
ABTS•+-Scavenging Activity TEAC [6]: 0.89 ± 0.04

CC(C)(C)c1cc(C=NCCCCNc2c3c(nc4ccccc24)CCC3)cc(C(C)(C)C)c1O [13b, 2,6-Di-tert-butyl-4-{[4-(2,3-dihydro-1H-cyclopenta[b]quinolin-9-ylamino)-butylimino]-methyl}-phenol]
Ferric-Reducing Antioxidant Power TE [1]: 0.60 ± 0.02
Propidium Displacement [2]: 20.0 ± 1.6 ***^,§ %
IC50 [3]: 351 ± 1 nM
IC50 [4]: 1300 ± 70 nM
CES % inhibition at 20 μM [5]: 32.7 ± 1.9%
IC50 [6]: 25.4 ± 1.6 µM
ABTS•+-Scavenging Activity TEAC [6]: 0.78 ± 0.04

CC(C)(C)c1cc(C=NCCCCCCNc2c3c(nc4ccccc24)CCC3)cc(C(C)(C)C)c1O [13c, 2,6-Di-tert-butyl-4-{[6-(2,3-dihydro-1H-cyclopenta[b]quinolin-9-ylamino)-hexylimino]-methyl}-phenol]
Ferric-Reducing Antioxidant Power TE [1]: 0.59 ± 0.01
Propidium Displacement [2]: 16.5 ± 1.3%
IC50 [3]: 172 ± 17 nM
IC50 [4]: 210 ± 10 nM
CES % inhibition at 20 μM [5]: 31.3 ± 2.1%
IC50 [6]: 19.4 ± 0.9 µM
ABTS•+-Scavenging Activity TEAC [6]: 0.98 ± 0.04
